Source: patent US11464771B2, “Bromodomain and extra-terminal protein inhibitor combination therapy” (CELGENE QUANTICEL RESEARCH, INC., priority 2016, dated 2022)
“Also recorded” adds a separate entry of the source.

Columns and labels:
[1] = GLP 4-week oral toxicity study in rats; format: in vivo; settings: for severely toxic dose in 10% of the rats (STD10): 3 days on/4 days off, 4 weeks
Excerpt: The dosing schedule was once daily administration for 3 consecutive days followed by 4 consecutive days off drug each week for a total of 4 weeks.

[2] = system: COH69 TNBC PDX-derived model; test: 3-D Matrigel colony formation, COH69; format: cell-based; settings: Homo sapiens, 7 or 14 days
Description: (§1) The effect of Compound A on colony formation in four PDX-derived breast cancer models was assessed using a 3-D Matrigel-based in vitro culture system. Compound A was tested at concentrations ranging from either 0.008 μM to 5 μM or 0.0016 μM to 1 μM in 5-fold increments. Colony formation was assessed after 7 days or 14 days of treatment by quantifying colony numbers by microscopy. […] The overall mean for the three TNBC models was 0.11±0.04 μM.

[3] = system: PA0165 pancreatic xenograft; test: Pancreatic xenograft PA0165, Compound A and Romidepsin; format: in vivo, NSG mice
Description: 3/4 is 3 days on and 4 days off; Q4D is once every 4 days; Q7D is once every 7 days; —— Control; - - - - Compound A 25 mg/kg, 3/4; - —— - —— Romidepsin 1.5 mg/kg Q4D×3; —— —— Compound A 25 mg/kg. 3/4 combined with Romidepsin 1.5 mg/kg Q7D; - - - Compound A 25 mg/kg, 3/4 combined with Romidepsin 0.75 mg/kg Q7D. Tumor volumes were plotted as mean±standard error of the mean (SEM).
3/4 is 3 days on and 4 days off; Q4D is once every 4 days. —— Control; - - - - Compound A at 25 mg/kg, 3/4; - —— - —— Romidepsin 1.5 mg/kg Q4D×3; —— —— Compound A 25 mg/kg, 3/4 combined with Romidepsin 1.5 mg/kg Q7D; - - - Compound A 25 mg/kg, 3/4 combined with Romidepsin 0.75 mg/kg Q7D.
Cohorts of 4-6 wk-old NSG mice bearing PA0165 were treated with Romidepsin at 1.5 mg/kg intravenous (IV)×3 Q4D; Compound A 25 mg/kg orally QD 3 days on then 4 days off; or with a combination of Compound A 25 mg/kg orally QD 3 days on then 4 days off and Romidepsin at 1.5 or 0.75 mg/kg IV Q7D. The treatment lasted 21 days.

[4] = Excretion of intact drug after IV administration in rats; format: in vivo; settings: average
recombinant CYP enzymes = test: Metabolism by recombinant cytochrome P450 (CYP) enzymes; format: in vitro ADME
Excerpt: (§2) No unique human metabolites were identified.

[5] = system: COH69, COH71, and TNBR3 TNBC models; test: 3-D Matrigel colony formation, mean of three TNBC models; format: cell-based; settings: Homo sapiens, read-out: overall mean IC50 of colony formation for the three TNBC models
Description: as §1

[6] = Cardiovascular and respiratory safety pharmacology in conscious dogs; format: in vivo; settings: conscious Beagle dogs; GLP 4-week study
Description: Safety pharmacology evaluations were performed to determine the potential cardiovascular and respiratory effects of Compound A in conscious Beagle dogs as part of the GLP 4-week repeat-dose toxicity study.

[7] = system: COH70 TNBC PDX subcutaneous tumor; test: Tumor growth inhibition in TNBC PDX model COH70; format: in vivo, NSG mice; settings: Day 38
Description: FIG. 1 is a graph showing dose-dependent tumor growth inhibition as measured by tumor volume in a TNBC PDX model, COH70, following dosing with Compound A (4-[2-(cyclopropylmethoxy)-5-methylsulfonylphenyl]-2-methylisoquinolin-1-one). Compound A dosing by mouth (PO) once daily for 3 consecutive days, followed by 4 days off (3×/week); —— Vehicle; - - - - Compound A 12.5 mg/kg PO 3×/week; —— —— Compound A 16 mg/kg PO 3×/week; - —— - —— Compound A 20 mg/kg PO 3×/week; SEM is the standard error of the mean.

[8] = NSG, mouse, in vivo, 6 weeks
[9] = Pharmacokinetics and oral bioavailability in rats; format: in vivo, Sprague-Dawley rats
Description: (§3) Pharmacokinetics and oral bioavailability of Compound A were evaluated in Sprague-Dawley rats and Beagle dogs.

CYP1A2 [10] = test: CYP1A2 induction in hepatocytes; format: in vitro ADME; settings: up to 10 μM
Excerpt: (§4) Compound A has minimal potential to cause drug-drug interactions with co-administered drugs that are CYP substrates.

CYP1A2 [11] = target: CYP1A2 (Homo sapiens, UniProt P05177); test: CYP1A2 inhibition in vitro; format: in vitro ADME
CYP1A2 (Homo sapiens, UniProt P05177), sequence (P05177 whole entry): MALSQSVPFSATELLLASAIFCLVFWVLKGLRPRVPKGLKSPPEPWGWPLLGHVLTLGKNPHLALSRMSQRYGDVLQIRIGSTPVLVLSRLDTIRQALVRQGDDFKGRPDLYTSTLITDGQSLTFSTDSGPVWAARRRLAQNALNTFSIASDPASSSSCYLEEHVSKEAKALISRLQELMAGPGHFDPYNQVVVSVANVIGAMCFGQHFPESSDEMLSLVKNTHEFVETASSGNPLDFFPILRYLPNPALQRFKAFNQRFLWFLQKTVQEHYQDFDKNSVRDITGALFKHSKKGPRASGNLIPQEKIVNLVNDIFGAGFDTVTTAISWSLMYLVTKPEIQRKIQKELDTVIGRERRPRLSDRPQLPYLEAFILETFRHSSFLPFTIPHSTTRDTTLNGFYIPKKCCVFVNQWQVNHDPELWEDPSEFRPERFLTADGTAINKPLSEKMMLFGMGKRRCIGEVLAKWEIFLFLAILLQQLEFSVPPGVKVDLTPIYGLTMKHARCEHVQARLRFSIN
Excerpt: as §4

CYP2B6 = CYP2B6 induction in hepatocytes; format: in vitro ADME; settings: up to 10 μM
Excerpt: as §4

CYP3A4 = CYP3A4 (Homo sapiens, UniProt P08684); test: CYP3A4 inhibition in vitro; format: in vitro ADME
CYP3A4, sequence (P08684 whole entry): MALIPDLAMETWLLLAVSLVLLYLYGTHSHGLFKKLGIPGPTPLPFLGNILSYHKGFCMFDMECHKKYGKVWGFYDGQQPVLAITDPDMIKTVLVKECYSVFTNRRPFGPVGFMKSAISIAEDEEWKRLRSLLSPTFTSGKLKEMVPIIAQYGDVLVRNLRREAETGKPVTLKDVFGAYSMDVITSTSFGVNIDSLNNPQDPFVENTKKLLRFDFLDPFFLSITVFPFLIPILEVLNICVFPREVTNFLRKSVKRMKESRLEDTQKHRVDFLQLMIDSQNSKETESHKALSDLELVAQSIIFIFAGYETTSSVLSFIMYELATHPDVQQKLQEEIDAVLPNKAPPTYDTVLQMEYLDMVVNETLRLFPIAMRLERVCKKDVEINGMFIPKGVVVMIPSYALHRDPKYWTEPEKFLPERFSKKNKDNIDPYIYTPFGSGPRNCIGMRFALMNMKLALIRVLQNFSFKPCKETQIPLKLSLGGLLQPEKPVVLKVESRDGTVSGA
Excerpt: as §4

[12] = system: PA0165 pancreatic xenograft; test: Pancreatic xenograft PA0165, Compound A and Abraxane; format: in vivo, NSG mice
Description: Cohorts of NSG mice bearing PA0165 were treated with Abraxane 10 mg/kg, IV×3 Q4D; Compound A 25 mg/kg orally QD 3 days on then 4 days off; or with a combination of Abraxane 10 mg/kg iv Q7D and Compound A 25 or 12.5 mg/kg orally QD 3 days on then 4 days off. The treatment lasted 21 days.

[13] = system: TNBR3 TNBC PDX-derived model; test: 3-D Matrigel colony formation, TNBR3; format: cell-based; settings: Homo sapiens, 7 or 14 days
Description: as §1

[14] = Pharmacokinetics and oral bioavailability in dogs; format: in vivo, Beagle dogs
Description: as §3

[15] = system: bacterial reverse mutation; test: Non-GLP bacterial reverse mutation assay (Ames)
Description: In a non-GLP bacterial reverse mutation assay (Ames), Compound A was determined to be non-mutagenic.

[16] = Plasma protein binding, preclinical species; format: in vitro ADME; settings: plasmas of preclinical species
[17] = Metabolism in human hepatocytes; format: in vitro ADME; settings: single metabolite
Excerpt: as §2

[18] = Functional observational battery (FOB) in 4-week rat study; format: in vivo, rats; settings: GLP 4-week repeat-dose rat study
Description: Safety pharmacology evaluations, i.e., functional observational battery (FOB), were also performed to determine the potential central nervous system effects of Compound A as part of the GLP 4-week repeat-dose toxicity rat study.

[19] = Compound A 25 mg/kg orally QD 3 days on/4 off alone, 21 days

## Cn1cc(-c2cc(S(C)(=O)=O)ccc2OCC2CC2)c2ccccc2c1=O [Compound A, 4-[2-(cyclopropylmethoxy)-5-methylsulfonylphenyl]-2-methylisoquinolin-1-one]
[1]; 4-week rat study, death or moribund sacrifice from Day 6
  severely toxic dose: ≥ 20 mg base/kg/dose
[1]; AUC
  mean exposure corresponding to the rat STD10: 52800 ng·h/mL
[1]; Table 3
  Rat STD10: 20 mg base/kg
[1]; females
  severely toxic dose in 10% of the rats (STD10): 20 mg base/kg/dose
[1]; from rat STD10
  HED: 3.2 mg base/kg
[1]; males
  severely toxic dose in 10% of the rats (STD10): 30 mg base/kg/dose
[1]; rat, in vivo
  accumulation after repeat dosing: no accumulation
  overarching NOAEL: 5 mg base/kg/dose
[1]; rat, safety factor 10
  HED/Safety Factor: 19 mg base
[1]; rats
  overarching STD10: 20 mg base/kg/dose
[2]
  IC50: 70 nM
[3]; [19]
  TGI: 38%
[3]; day 30, Compound A only group
  survival rate: about 70%
[4]
  dose excreted intact in bile or urine: 0.9 % of the dose
Recombinant CYP enzymes
  CYP enzymes capable of metabolizing: CYP2C9, CYP2C19 and CYP3A4
[5]
  IC50: 110 ± 40 nM
[6]
  effects on electrocardiograms, heart rate, or respiratory rate: no Compound A-related effects
[7]; 12.5 mg/kg PO QD 3 days on/4 days off
  mean percent TGI: 64%
[7]; 16 mg/kg PO QD 3 days on/4 days off
  mean percent TGI: 68%
[7]; 20 mg/kg PO QD 3 days on/4 days off
  mean percent TGI: 72%
[8]
  well tolerated daily dose: ≤ 25 mg/kg
[9]
  clearance in males relative to females: approximately 2 fold
[9]; Sprague-Dawley, rat, in vivo, po
  bioavailability: 40%
CYP1A2 [10]
  induction of CYP1A2: not an inducer; also recorded: did not induce
CYP1A2 [11]
  inhibition of CYP1A2: does not inhibit
CYP2B6
  induction of CYP2B6: not an inducer; also recorded: did not induce
CYP3A4
  inhibition of CYP3A4: does not inhibit
[12]; [19]
  TGI: 49.3%
[12]; day 41, Compound A only group
  survival rate: about 20%
[13]
  IC50: 80 nM
[14]
  mean oral bioavailability: 76%
[15]
  mutagenicity (Ames): non-mutagenic
[16]
  fraction unbound: 0.067 to 0.101
[17]
  metabolite identified: N-desmethyl derivative
[18]
  FOB effects: no Compound A-related FOB effects
